These results are taken from US20070077305A1, “Biocompatible polymeric matrix and preparation thereof” (priority 2005, published 2007).

The data set in a line: In vitro diffusion test of film using Franz apparatus. In kind it is in vitro ADME. To be noted: after 24 h; from chitosan succinic acid film (DS about 60-80%); phosphate buffer pH 7.2, 32° C. The method, then: The functionalized chitosan polymeric matrix was synthesized as previously described with a degree of substitution of about 60-80%. 500 mg of caffeine was added in 100 mL functionalized chitosan polymeric matrix solution (2.5%) and stirred during […]. Films were produce by applying 20 mL of the solution evenly onto Petri dishes and dried at room temperature for 24-48 h.
The film produced was subjected to an in vitro diffusion test using Franz apparatus, with an exposed surface area of 3.9 cm^2. Polydimethylsiloxan (Silastic®) membranes have been used as barrier and the receptor compartment (dissolution phase) was 1 L of 50 mM phosphate buffer (pH 7.2) at 32° C. At predetermined time intervals, the samples (5 mL aliquots) were analyzed at 272 nm for the determination of caffeine permeation.

Consider `Cn1c(=O)c2c(ncn2C)n(C)c1=O` [caffeine], for which the “amount of caffeine in the receptor compartment” value was 405 μg/cm^2.
